{"source": "patent US5929038A", "about": "“Pharmaceutical preparations which inhibit hepatitis B virus (HBV) replication” (Choongwae Pharmaceutical Co., Ltd., priority 1992, dated 1999)", "origin": "cited, not measured here", "system": "hepatitis B (HBV infection)", "details": "cited from earlier work"}
{"smiles": "Nc1ncnc2c1ncn2[C@@H]1O[C@H](COP(=O)(O)O)[C@@H](O)[C@@H]1O", "note": "[ara-AMP, reference compound]", "values": [{"measurement": "suppression of HBV infection", "setting": "clinical use", "result": "transiently suppress HBV infection"}, {"measurement": "toxicities", "setting": "in vivo", "result": "often serious toxicities"}]}
